Data reported in patent US20230002357A1, “7-PYRIMIDINE-2-YL-OXY-INDAZOLE DERIVATIVES AND THEIR USE AS HERBICIDES” (SYNGENTA CROP PROTECTION AG, priority 2019, published 2023).

Columns and labels:
Assay type in all cases: in vivo
Settings in all cases: 250 g/ha, evaluated after 13 days
[1] = tested on: Echinochloa crus-galli (ECHCG); test: Post-emergence Test, glasshouse, ECHCG
Procedure: (§1) Seeds of a variety of test species are sown in standard soil in pots Amaranthus retoflexus (AMARE), Echinochloa crus-galli (ECHCG), Setaria faberi (SETFA)). After cultivation for one day (pre-emergence) or after 8 days cultivation (post-emergence) under controlled conditions in a glasshouse (at 24/16° C., day/night; 14 hours light; 65% humidity), the plants are sprayed with an aqueous spray solution derived from the formulation of the technical active ingredient in acetone/water (50:50) solution containing 0.5% Tween™ 20 (polyoxyethelyene sorbitan monolaurate, CAS RN 9005-64-5). Compounds are applied at 250 g/ha unless otherwise stated. The test plants are then grown in a glasshouse under controlled conditions in a glasshouse (at 24/16° C., day/night; 14 hours light; 65% humidity) and watered twice daily. After 13 days for pre- and post-emergence, the test is evaluated for the percentage damage caused to the plant. The biological activities are shown in the following table on a five-point scale (5=81-100%; 4=61-80%; 3=41-60%; 2=21-40%; 1=0-20%).

IPOHE [2] = test: Pre-emergence Test, glasshouse, IPOHE
Procedure: as §1

Setaria faberi (SETFA) [3] = test: Pre-emergence Test, glasshouse, SETFA
Procedure: as §1

[4] = tested on: Amaranthus retoflexus (AMARE); test: Pre-emergence Test, glasshouse, AMARE
Procedure: as §1

Setaria faberi (SETFA) [5] = test: Post-emergence Test, glasshouse, SETFA
Procedure: as §1

ABUTH [6] = test: Pre-emergence Test, glasshouse, ABUTH
Procedure: as §1

IPOHE [7] = test: Post-emergence Test, glasshouse, IPOHE
Procedure: as §1

ABUTH [8] = test: Post-emergence Test, glasshouse, ABUTH
Procedure: as §1

[9] = tested on: Amaranthus retoflexus (AMARE); test: Post-emergence Test, glasshouse, AMARE
Procedure: as §1

[10] = tested on: Echinochloa crus-galli (ECHCG); test: Pre-emergence Test, glasshouse, ECHCG
Procedure: as §1

SMILES	percentage damage caused to the plant, five-point scale, ECHCG [1]	percentage damage caused to the plant, five-point scale, IPOHE (IPOHE [2])	percentage damage caused to the plant, five-point scale, SETFA (Setaria faberi (SETFA) [3])	percentage damage caused to the plant, five-point scale, AMARE [4]	percentage damage caused to the plant, five-point scale, SETFA (Setaria faberi (SETFA) [5])	percentage damage caused to the plant, five-point scale, ABUTH (ABUTH [6])	percentage damage caused to the plant, five-point scale, IPOHE (IPOHE [7])	percentage damage caused to the plant, five-point scale, ABUTH (ABUTH [8])	percentage damage caused to the plant, five-point scale, AMARE [9]	percentage damage caused to the plant, five-point scale, ECHCG [10]
FC(F)(F)CCCn1nc(Br)c2c(Br)ccc(Oc3ncc(Cl)cn3)c21 [Compound 1.015]	2 (2=21-40%)	1 (1=0-20%)	1 (1=0-20%)	2 (2=21-40%)	2 (2=21-40%)	1 (1=0-20%)	1 (1=0-20%)	4 (4=61-80%)	4 (4=61-80%)	1 (1=0-20%)
FC(F)(F)CCCn1nc(Br)c2cc(Br)cc(Oc3ncc(Cl)cn3)c21 [Compound 1.016]	1 (1=0-20%)	1 (1=0-20%)	1 (1=0-20%)	1 (1=0-20%)	1 (1=0-20%)	1 (1=0-20%)	1 (1=0-20%)	2 (2=21-40%)	4 (4=61-80%)	1 (1=0-20%)
N#Cc1cc(Cl)cnc1Oc1cc(Cl)cc2cnn(CCCC(F)(F)F)c12 [Compound 1.017]	1 (1=0-20%)	1 (1=0-20%)	1 (1=0-20%)	1 (1=0-20%)	1 (1=0-20%)	1 (1=0-20%)	1 (1=0-20%)	1 (1=0-20%)	4 (4=61-80%)	1 (1=0-20%)
FC(F)(F)CCCn1nc(Cl)c2c(Cl)c(Br)cc(Oc3ncc(Cl)cn3)c21 [Compound 1.019]	2 (2=21-40%)	1 (1=0-20%)	1 (1=0-20%)	1 (1=0-20%)	2 (2=21-40%)	1 (1=0-20%)	1 (1=0-20%)	1 (1=0-20%)	4 (4=61-80%)	1 (1=0-20%)
Fc1cc(Cl)cnc1Oc1ccc(Cl)c2cnn(CCCC(F)(F)F)c12 [Compound 1.031]	1 (1=0-20%)	1 (1=0-20%)	1 (1=0-20%)	1 (1=0-20%)	1 (1=0-20%)	1 (1=0-20%)	1 (1=0-20%)	1 (1=0-20%)	4 (4=61-80%)	1 (1=0-20%)
COc1nn(CCCC(F)(F)F)c2c(Oc3ncc(Cl)cn3)cccc12 [Compound 1.033, 7-(5-chloropyrimidin-2-yl)oxy-3-methoxy-1-(4,4,4-trifluorobutyl)indazole]	1 (1=0-20%)	1 (1=0-20%)	1 (1=0-20%)	2 (2=21-40%)	1 (1=0-20%)	1 (1=0-20%)	1 (1=0-20%)	1 (1=0-20%)	1 (1=0-20%)	1 (1=0-20%)
COCCn1nc(Cl)c2cccc(Oc3ncc(Cl)cn3)c21 [Compound 1.034]	4 (4=61-80%)	3 (3=41-60%)	5 (5=81-100%)	5 (5=81-100%)	4 (4=61-80%)	2 (2=21-40%)	4 (4=61-80%)	4 (4=61-80%)	5 (5=81-100%)	5 (5=81-100%)
FC(F)(F)CCn1nc(Cl)c2cccc(Oc3ncc(Cl)cn3)c21 [Compound 1.035]	5 (5=81-100%)	3 (3=41-60%)	5 (5=81-100%)	4 (4=61-80%)	4 (4=61-80%)	3 (3=41-60%)	4 (4=61-80%)	5 (5=81-100%)	5 (5=81-100%)	5 (5=81-100%)
FC(F)(F)CCCn1ncc2ccc(Br)c(Oc3ncc(Cl)cn3)c21 [Compound 1.036]	1 (1=0-20%)	1 (1=0-20%)	1 (1=0-20%)	1 (1=0-20%)	1 (1=0-20%)	1 (1=0-20%)	1 (1=0-20%)	1 (1=0-20%)	1 (1=0-20%)	1 (1=0-20%)
FC(F)(F)CCCn1nc(Cl)c2ccc(Br)c(Oc3ncc(Cl)cn3)c21 [Compound 1.037]	1 (1=0-20%)	1 (1=0-20%)	1 (1=0-20%)	1 (1=0-20%)	1 (1=0-20%)	1 (1=0-20%)	1 (1=0-20%)	1 (1=0-20%)	2 (2=21-40%)	1 (1=0-20%)
FCCCCn1nc(Cl)c2cccc(Oc3ncc(Cl)cn3)c21 [Compound 1.039]	4 (4=61-80%)	1 (1=0-20%)	5 (5=81-100%)	5 (5=81-100%)	4 (4=61-80%)	3 (3=41-60%)	4 (4=61-80%)	4 (4=61-80%)	5 (5=81-100%)	5 (5=81-100%)
FC(F)CCCn1nc(Cl)c2cccc(Oc3ncc(Cl)cn3)c21 [Compound 1.040]	5 (5=81-100%)	2 (2=21-40%)	5 (5=81-100%)	5 (5=81-100%)	4 (4=61-80%)	4 (4=61-80%)	5 (5=81-100%)	4 (4=61-80%)	5 (5=81-100%)	5 (5=81-100%)
